{
  "source": "ChEMBL document CHEMBL1212758",
  "about": "(Antimicrob Agents Chemother, 2010)",
  "type_in_all_cases": "functional",
  "key": {"[1]": {"tested_on": "Macacine alphaherpesvirus 1", "experiment": "Ratio of acyclovir EC50 to compound EC50 for Macacine herpesvirus 1 isolate MJ1 infected in african green monkey Vero cells"}, "[2]": {"tested_on": "Macacine alphaherpesvirus 1", "experiment": "Ratio of acyclovir EC50 to compound EC50 for Macacine herpesvirus 1 isolate MJ2 infected in african green monkey Vero cells"}, "[3]": {"tested_on": "Macacine alphaherpesvirus 1", "experiment": "Ratio of acyclovir EC50 to compound EC50 for Macacine herpesvirus 1 isolate A3 infected in african green monkey Vero cells"}, "[4]": {"tested_on": "Macacine alphaherpesvirus 1", "experiment": "Ratio of acyclovir EC50 to compound EC50 for Macacine herpesvirus 1 isolate MR5 infected in african green monkey Vero cells"}, "[5]": {"tested_on": "Macacine alphaherpesvirus 1", "experiment": "Ratio of acyclovir EC50 to compound EC50 for Macacine herpesvirus 1 isolate A2 infected in african green monkey Vero cells"}, "[6]": {"tested_on": "Macacine alphaherpesvirus 1", "experiment": "Ratio of acyclovir EC50 to compound EC50 for Macacine herpesvirus 1 isolate A1 infected in african green monkey Vero cells"}, "[7]": {"tested_on": "Macacine alphaherpesvirus 1", "experiment": "Ratio of acyclovir EC50 to compound EC50 for Macacine herpesvirus 1 isolate MP1 infected in african green monkey Vero cells"}, "[8]": {"tested_on": "Macacine alphaherpesvirus 1", "experiment": "Ratio of acyclovir EC50 to compound EC50 for Macacine herpesvirus 1 isolate MR6 infected in african green monkey Vero cells"}, "[9]": {"tested_on": "Macacine alphaherpesvirus 1", "experiment": "Ratio of acyclovir EC50 to compound EC50 for Macacine herpesvirus 1 isolate MC2 infected in african green monkey Vero cells"}, "[10]": {"tested_on": "Macacine alphaherpesvirus 1", "experiment": "Ratio of acyclovir EC50 to compound EC50 for Macacine herpesvirus 1 isolate MR7 infected in african green monkey Vero cells"}, "[11]": {"tested_on": "Macacine alphaherpesvirus 1", "experiment": "Ratio of acyclovir EC50 to compound EC50 for Macacine herpesvirus 1 isolate MR10 infected in african green monkey Vero cells"}, "[12]": {"tested_on": "Macacine alphaherpesvirus 1", "experiment": "Ratio of acyclovir EC50 to compound EC50 for Macacine herpesvirus 1 isolate MR1 infected in african green monkey Vero cells"}, "[13]": {"tested_on": "Macacine alphaherpesvirus 1", "experiment": "Ratio of acyclovir EC50 to compound EC50 for Macacine herpesvirus 1 isolate MR8 infected in african green monkey Vero cells"}, "[14]": {"tested_on": "Macacine alphaherpesvirus 1", "experiment": "Ratio of acyclovir EC50 to compound EC50 for Macacine herpesvirus 1 isolate MR4 infected in african green monkey Vero cells"}, "[15]": {"tested_on": "Macacine alphaherpesvirus 1", "experiment": "Ratio of acyclovir EC50 to compound EC50 for Macacine herpesvirus 1 isolate MR3 infected in african green monkey Vero cells"}, "Human alphaherpesvirus 1": {"tested_on": "Human alphaherpesvirus 1", "experiment": "Ratio of acyclovir EC50 to compound EC50 for HSV1 infected in african green monkey Vero cells"}, "[16]": {"tested_on": "Macacine alphaherpesvirus 1", "experiment": "Ratio of acyclovir EC50 to compound EC50 for Macacine herpesvirus 1 isolate MR2 infected in african green monkey Vero cells"}, "[17]": {"tested_on": "Macacine alphaherpesvirus 1", "experiment": "Ratio of acyclovir EC50 to compound EC50 for Macacine herpesvirus 1 isolate MJ3 infected in african green monkey Vero cells"}, "[18]": {"tested_on": "Macacine alphaherpesvirus 1", "experiment": "Ratio of acyclovir EC50 to compound EC50 for Macacine herpesvirus 1 isolate MC1 infected in african green monkey Vero cells"}, "[19]": {"tested_on": "Macacine alphaherpesvirus 1", "experiment": "Ratio of acyclovir EC50 to compound EC50 for Macacine herpesvirus 1 isolate MR9 infected in african green monkey Vero cells"}, "Human alphaherpesvirus 2": {"tested_on": "Human alphaherpesvirus 2", "experiment": "Ratio of acyclovir EC50 to compound EC50 for HSV 2 infected in african green monkey Vero cells"}, "[20]": {"tested_on": "Macacine alphaherpesvirus 1", "experiment": "Ratio of acyclovir EC50 to compound EC50 for Macacine herpesvirus 1 isolate MR11 infected in african green monkey Vero cells"}, "[21]": {"tested_on": "Macacine alphaherpesvirus 1", "experiment": "Ratio of acyclovir EC50 to compound EC50 for Macacine herpesvirus 1 isolate A6 infected in african green monkey Vero cells"}, "[22]": {"tested_on": "Macacine alphaherpesvirus 1", "experiment": "Ratio of acyclovir EC50 to compound EC50 for Macacine herpesvirus 1 isolate E2490 infected in african green monkey Vero cells"}, "[23]": {"tested_on": "Macacine alphaherpesvirus 1", "experiment": "Ratio of acyclovir EC50 to compound EC50 for Macacine herpesvirus 1 isolate A5 infected in african green monkey Vero cells"}, "[24]": {"tested_on": "Macacine alphaherpesvirus 1", "experiment": "Ratio of acyclovir EC50 to compound EC50 for Macacine herpesvirus 1 isolate A4 infected in african green monkey Vero cells"}},
  "data": [
    {"smiles": "CCc1cn([C@H]2O[C@@H](CO)[C@H](O)[C@H]2F)c(=O)[nH]c1=O", "note": "(single isomer, unassigned)", "values": [
      {"measurement": "Ratio EC50", "setting": "[1]", "value": 100},
      {"measurement": "Ratio EC50", "setting": "[2]", "value": 100},
      {"measurement": "Ratio EC50", "setting": "[3]", "value": 100},
      {"measurement": "Ratio EC50", "setting": "[4]", "value": 100},
      {"measurement": "Ratio EC50", "setting": "[5]", "value": 100},
      {"measurement": "Ratio EC50", "setting": "[6]", "value": 100},
      {"measurement": "Ratio EC50", "setting": "[7]", "value": 100},
      {"measurement": "Ratio EC50", "setting": "[8]", "value": 100},
      {"measurement": "Ratio EC50", "setting": "[9]", "value": 100},
      {"measurement": "Ratio EC50", "setting": "[10]", "value": 100},
      {"measurement": "Ratio EC50", "setting": "[11]", "value": 100},
      {"measurement": "Ratio EC50", "setting": "[12]", "value": 100},
      {"measurement": "Ratio EC50", "setting": "[13]", "value": 100},
      {"measurement": "Ratio EC50", "setting": "[14]", "value": 100},
      {"measurement": "Ratio EC50", "setting": "[15]", "value": 100},
      {"measurement": "Ratio EC50", "setting": "Human alphaherpesvirus 1", "value": 100},
      {"measurement": "Ratio EC50", "setting": "[16]", "value": 100},
      {"measurement": "Ratio EC50", "setting": "[17]", "value": 100},
      {"measurement": "Ratio EC50", "setting": "[18]", "value": 100},
      {"measurement": "Ratio EC50", "setting": "[19]", "value": 100},
      {"measurement": "Ratio EC50", "setting": "Human alphaherpesvirus 2", "value": 100},
      {"measurement": "Ratio EC50", "setting": "[20]", "value": 100},
      {"measurement": "Ratio EC50", "setting": "[21]", "value": 100},
      {"measurement": "Ratio EC50", "setting": "[22]", "value": 100},
      {"measurement": "Ratio EC50", "setting": "[23]", "value": 100},
      {"measurement": "Ratio EC50", "setting": "[24]", "value": 100}
    ]},
    {"smiles": "Cc1cn([C@@H]2O[C@H](CO)[C@@H](O)[C@@H]2F)c(=O)nc1N", "values": [
      {"measurement": "Ratio EC50", "setting": "[1]", "value": 10},
      {"measurement": "Ratio EC50", "setting": "[2]", "value": 10},
      {"measurement": "Ratio EC50", "setting": "[3]", "value": 10},
      {"measurement": "Ratio EC50", "setting": "[4]", "value": 10},
      {"measurement": "Ratio EC50", "setting": "[5]", "value": 10},
      {"measurement": "Ratio EC50", "setting": "[6]", "value": 10},
      {"measurement": "Ratio EC50", "setting": "[7]", "value": 10},
      {"measurement": "Ratio EC50", "setting": "[8]", "value": 10},
      {"measurement": "Ratio EC50", "setting": "[9]", "value": 10},
      {"measurement": "Ratio EC50", "setting": "[10]", "value": 10},
      {"measurement": "Ratio EC50", "setting": "[11]", "value": 10},
      {"measurement": "Ratio EC50", "setting": "[12]", "value": 10},
      {"measurement": "Ratio EC50", "setting": "[13]", "value": 10},
      {"measurement": "Ratio EC50", "setting": "[14]", "value": 10},
      {"measurement": "Ratio EC50", "setting": "[15]", "value": 10},
      {"measurement": "Ratio EC50", "setting": "Human alphaherpesvirus 1", "value": 10},
      {"measurement": "Ratio EC50", "setting": "[16]", "value": 10},
      {"measurement": "Ratio EC50", "setting": "[17]", "value": 10},
      {"measurement": "Ratio EC50", "setting": "[18]", "value": 10},
      {"measurement": "Ratio EC50", "setting": "[19]", "value": 10},
      {"measurement": "Ratio EC50", "setting": "Human alphaherpesvirus 2", "value": 10},
      {"measurement": "Ratio EC50", "setting": "[20]", "value": 10},
      {"measurement": "Ratio EC50", "setting": "[21]", "value": 10},
      {"measurement": "Ratio EC50", "setting": "[22]", "value": 10},
      {"measurement": "Ratio EC50", "setting": "[23]", "value": 10},
      {"measurement": "Ratio EC50", "setting": "[24]", "value": 10}
    ]}
  ]
}
